US20180179574A1, “SYSTEMS AND METHODS FOR CHARACTERIZATION OF […]” (The University of Chicago, priority 2015, published 2018)

Legend:
[1] = tested on: HepG2; test: Lipase assay with live cells (HepG2), fluorogenic TG substrate; type: cell-based; conditions: HepG2 cells washed with heparin
Protocol: FIG. 2. The lipase assay is non-toxic and detects enzyme activity with live cells. The removal of the reaction mix from the cells (HepG2) stops substrate hydrolysis but is reinitiated once added back to the same cells (A).
Experiments were conducted during development of embodiments of the present invention using an in vitro assay that utilizes bovine milk LpL (SIGMA) diluted to ˜120 ng/ml in Tris-HCl, 0.15M NaCl (TBS), 1%(w/v) BSA, 0.015%(w/v) Zwittergent 3-14, pH 7.8+1 μM to 25 μM ENZCHEK substrate, prepared in black polypropylene microplates. In some embodiments, the lipase reaction is performed at room temperature or 37° C. for 10 min to 60 min. Detection of product is performed with a fluorescent plate reader using excitation/emission wavelengths of 482 nm and 515 nm. The assay is sensitive to fmol/L of LpL (130% gain on reader) (FIG. 6C) and product accumulation increases linearly with increasing enzyme concentrations (FIG. 1A). The absolute product concentration is proportional to the relative fluorescence units (RFU) and can be calculated using BODIPY-C12 fatty acid (D3823, Life Technologies Inc.) as a standard and allows the determination of reaction rates (i.e. ng/ml/min) and Michaelis-Menten kinetic parameters. […] Furthermore, the mild nature of the assay formulation allows LpL activity to be determined with live cells in cell culture or isolated cells (FIG. 2).

[2] = target: T1, Leukocyte-LpL (Homo sapiens, UniProt P06858); test: Leukocyte LpL hydrolytic potential / lipase response to stimulation assay (fluorogenic ENZCHEK TG substrate); type: cell-based; conditions: leukocytes washed with heparin removing surface LpL
T1 construct: analyze the activity of endogenous cell-associated LpL from a blood sample; host or cells: primary leukocytes (buffy coat) from fresh whole blood
T1 sequence (P06858 28-475): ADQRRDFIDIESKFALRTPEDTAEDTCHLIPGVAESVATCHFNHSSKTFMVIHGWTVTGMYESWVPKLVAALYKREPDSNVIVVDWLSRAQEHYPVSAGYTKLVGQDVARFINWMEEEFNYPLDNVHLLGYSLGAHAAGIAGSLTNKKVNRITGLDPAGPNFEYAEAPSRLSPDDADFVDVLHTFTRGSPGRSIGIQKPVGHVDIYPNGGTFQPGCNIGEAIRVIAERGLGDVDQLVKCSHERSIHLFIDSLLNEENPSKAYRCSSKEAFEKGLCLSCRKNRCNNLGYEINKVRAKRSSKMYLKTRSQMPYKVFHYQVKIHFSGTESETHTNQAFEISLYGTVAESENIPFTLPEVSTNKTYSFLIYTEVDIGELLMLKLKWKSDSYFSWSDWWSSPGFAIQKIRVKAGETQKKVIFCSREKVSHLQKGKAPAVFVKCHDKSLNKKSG
Protocol: FIG. 6. Leukocyte-LpL activity is detectible and responsive to C-II51-79 and AV199-232 peptide stimulation. Leukocytes (buffy coat) was collected by centrifugation of fresh whole blood from healthy donors (Zen Bio Inc.), rinsed and then incubated with LpL reaction mix (A, B). Leukocytes were also incubated with […] CII51-79 and/or AV199-232 (A). […] Increasing fluorescent plate reader gain can increase sensitivity to low femto molar range (C).
Experiments were conducted during development of embodiments of the present invention using an in vitro assay that utilizes bovine milk LpL (SIGMA) diluted to ˜120 ng/ml in Tris-HCl, 0.15M NaCl (TBS), 1%(w/v) BSA, 0.015%(w/v) Zwittergent 3-14, pH 7.8+1 μM to 25 μM ENZCHEK substrate, prepared in black polypropylene microplates. […] Detection of product is performed with a fluorescent plate reader using excitation/emission wavelengths of 482 nm and 515 nm. The assay is sensitive to fmol/L of LpL (130% gain on reader) (FIG. 6C) and product accumulation increases linearly with increasing enzyme concentrations (FIG. 1A). The absolute product concentration is proportional to the relative fluorescence units (RFU) and can be calculated using BODIPY-C12 fatty acid (D3823, Life Technologies Inc.) as a standard and allows the determination of reaction rates (i.e. ng/ml/min) and Michaelis-Menten kinetic parameters. […]

Leukocyte substrate hydrolysis after washing cells with heparin [2]: substrate hydrolysis was lost
Substance: heparin
Substrate hydrolysis by live cells after washing cells with heparin [1]: inhibits substrate hydrolysis
